# From US6432913B1, “Polypeptide of protein p140 and DNAs encoding it” (Ono Pharmaceutical Co., Ltd., priority 1993, dated 2002)
# How the values were obtained:
# [1] = test system: protein p140; test: Effects of various test compounds on p140 phosphorylation in rat L6 cells; type: cell-based; set-up: dose or concentration left out as unconfirmed
# Description: Rat L6 cells (1×10^5 cells/dish) were incubated in the Dulbecco's modified Eagle's medium (containing 10% BFS) at 37° C. under 5% CO2 atmosphere for 8 days. The cells used were skeletal muscle myoblast-differentiated muscle cells. After treating the differentiated skeletal muscle cells in serum-free Dulbecco's modified Eagle's media for 4 hr, various test compounds (10 mM; except insulin,1 mM) were added before the cultures were further incubated for a fixed interval. After the cultures were rinsed with ice-cold phosphate buffer, cells were lysed with phosphate buffer containing 0.5% octa (ethylene glycol) ether (C12E8). The pp140 was recovered by cephalobeads bound with phosphotyrosine antibody (Transformation Corp.) prior to elution and detection with phenyl phosphate and western blotting method, respectively. The band content of pp140 was determined by a densitometer using purified pp140 as the standard.
# [2] = test system: Rat L6 cells; test: Enhancement activity on glucose uptake (3H-2-deoxyglucose) in rat L6 cells; type: cell-based; conditions: 2 hr, 5 mM 3H-2-deoxyglucose, initial 3 min
# Description: Rat L6 cells (1×10^5 cells/dish) were incubated in Dulbecco's modified Eagle's medium (containing 10% BFS) at 37° C. under 5% C02 atmosphere for 8 days. The cells used were skeletal muscle myoblast-differentiated skeletal muscle cells. After treating the differentiated skeletal muscle cells in serum-free Dulbecco's modified Eagle's medium for 2 hr, various test compounds (10 mM; except insulin,l mM) were added before the cultures were further incubated for a fixed interval of 2 hr. Cultures thereafter treated with Crebs-Ringer phosphate buffer (pH: 7.4) for 20 min were further incubated with 5 mM ^3H-2-deoxyglucose (0.05 mCi/ml). At the initial 3 min after incubation, the uptake radioactivity content in cells was determined with a liquid syntillation counter.
# [3] = test system: streptozotocin (STZ)-induced diabetic rats; test: Effects of vitamin K5 on diabetes in streptozotocin (STZ) rats; type: in vivo, rat; conditions: vitamin K5 i.p. once daily for 3 consecutive days
# Description: The diabetes model using streptozotocin (STZ) was established in male Wistar rats (STZ rats). After administering various intraperitoneal (i.p.) daily doses of vitamin K5 for 3 consecutive days in STZ rats (one administration per day), the glucose, neutral fat and cholesterol contents in blood were determined. Accordingly, STZ and normal rats were administered with the vehicle (physiological saline) at identical daily rate and duration prior to determination of similar hematic indices mentioned above. In addition, rats administered subcutaneously (s.c.) with insulin (8 U/kg) daily (one administration per day) for 3 consecutive days were used as positive controls.
# [4] = test system: protein p140; test: Tyrosine phosphorylation of p140 in human A673 muscle cells; type: cell-based; conditions: for p140 tyrosine phosphorylation (band content of pp140): human A 678 cells, amylin 100 pM 24 hr before insulin where added
# Description: (§1) Using the Dubecco's modified Eagle's medium (containing 10% BFS), various cells (1×10^5 cells/dish) were incubated at 37° C. under 5% CO2 atmosphere for 5˜8 days. The cells were skeletal muscle cells differentiated from skeletal muscle myoblasts. The differentiated cells previously treated in serum-free Dulbecco's modified Eagle's medium for 4 hr was incubated with and without amylin (100 pM) before further incubation for 24 hr. Cultures treated with insulin (100 nM) thereafter were incubated for a fixed interval (10 or 60 min). After the cultures were rinsed with ice-cold phosphate buffer, cells were lysed with phosphate buffer containing 0.5% octa (ethylene glycol) ether (C12E8). The pp140 was recovered by sepharobeads bound with phosphothyrosine antibody (Transformation Corp.) prior to elution and detection with phenyl phosphate and western blotting method, respectively. The band content of pp140 was determined by a densitometer using purified pp140 as the standard. In the Table 1, cultures were treated with amylin (100 pM) 24 hr before insulin (100 nM) was added.
# [5] = test system: protein p140; test: Tyrosine phosphorylation of p140 in human HepG2 hepatocytes; type: cell-based; conditions: for p140 tyrosine phosphorylation (band content of pp140): human HepG2 cells, amylin 100 pM 24 hr before insulin where added
# [6] = test system: protein p140; test: Tyrosine phosphorylation of p140 in rat FaO hepatocytes; type: cell-based; conditions: for p140 tyrosine phosphorylation (band content of pp140): rat FaO cells, amylin 100 pM 24 hr before insulin where added
# Description: as §1
# [7] = test system: protein p140; test: Tyrosine phosphorylation of p140 in rat L6 cells (anti-phosphotyrosine recovery, western blot, densitometry); type: cell-based; conditions: for p140 tyrosine phosphorylation (band content of pp140): rat L6 cells, amylin 100 pM 24 hr before insulin where added
# Description: as §1
# [8] = test system: L6 cells; test: Glucose uptake in L6 cells with amylin administration; type: cell-based; conditions: L6 cells of rat skeletal muscle myoblasts
# Excerpt: (§2) These observations were accompanied by decreases in both incidences, glucose transporter 4 (Glut 4) quantity and synthesized glycogen content (less than 50% decrease compared to that of control group) with 1.7-fold increase in the blood glucose content.
# [9] = test system: healthy rats; test: Amylin administration to healthy rats for 7 days; type: in vivo, rat; conditions: amylin 0.1 mg/kg, i.p., t.i.d.
# Excerpt: as §2
Molecule,Amount of tyrosine phosphorylated p140 ([1]; 0 min),Amount of tyrosine phosphorylated p140 ([1]; 3 min),Amount of tyrosine phosphorylated p140 ([1]; 10 min),Amount of tyrosine phosphorylated p140 ([1]; 60 min),Activity on glucose uptake [2],also measured
CC(C)CCOc1ccc(C=C2SC(=S)NC2=O)cc1 [5-(4-isoamyloxybenzylidene)rhodanine],400 copy/cell,3200 copy/cell,2250 copy/cell,1600 copy/cell,98.4 pmol/mg protein/min,
O=C1NC(=S)SC1c1ccccc1 (stereo not shown) [5-phenylrhodanine],350 copy/cell,1600 copy/cell,1250 copy/cell,650 copy/cell,76.8 pmol/mg protein/min,
"CC1=CC(=O)c2ccccc2C1=O [Vitamin K3, 2-methyl-1,4-naphthoquinone]",350 copy/cell,3650 copy/cell,1800 copy/cell,750 copy/cell,60.9 pmol/mg protein/min,
"Cc1cc(N)c2ccccc2c1O [Vitamin K5, 4-amino-2-methyl-1-naphthol]",400 copy/cell,3850 copy/cell,2850 copy/cell,1600 copy/cell,67.5 pmol/mg protein/min,cholesterol content in blood [3]: elicited recovery of changes; glucose content in blood [3]: elicited recovery of changes; neutral fat content in blood [3]: elicited recovery of changes
Insulin,350 copy/cell,1850 copy/cell,2600 copy/cell,1650 copy/cell,106.8 pmol/mg protein/min,p140 tyrosine phosphorylation (band content of pp140) ([4]; insulin 100 nM for 10 min): 2500; p140 tyrosine phosphorylation (band content of pp140) ([4]; insulin 100 nM for 60 min): 1900; p140 tyrosine phosphorylation (band content of pp140) ([5]; insulin 100 nM for 10 min): 2100; p140 tyrosine phosphorylation (band content of pp140) ([5]; insulin 100 nM for 60 min): 1200; p140 tyrosine phosphorylation (band content of pp140) ([6]; insulin 100 nM for 10 min): 2000; p140 tyrosine phosphorylation (band content of pp140) ([6]; insulin 100 nM for 60 min): 1400; p140 tyrosine phosphorylation (band content of pp140) ([7]; insulin 100 nM for 10 min): 2400; p140 tyrosine phosphorylation (band content of pp140) ([7]; insulin 100 nM for 60 min): 1000
amylin,,,,,,"Effect on insulin-induced incidence of pp140 ([4]; human muscle cells (A673 cells)): similarly confirmed; glucose uptake in the cells [8]: decreased glucose uptake; Effect on insulin-induced incidence of pp140 ([5]; human hepatocytes (HepG2 cells)): similarly confirmed; glucose transporter 4 (Glut 4) quantity [9]: decreases; increase in the blood glucose content [9]: 1.7 fold; insulin receptor population [9]: dramatic decreases; secreted insulin quantity [9]: dramatic decreases; synthesized glycogen content, decrease compared to control group [9]: less than 50%; Effect on insulin-induced incidence of pp140 ([6]; rat hepatocytes, FaO cells): similarly confirmed; Effect on insulin-induced incidence of pp140 ([7]; rat L6 cells incubated with insulin within 10 min): antagonized"
